Experimental data published in paper PMC9814779, “A triple farnesoid X receptor and peroxisome proliferator-activated receptor α/δ activator reverses hepatic fibrosis in diet-induced NASH in mice” (Communications Chemistry, 2020).

Legend:
Type in all cases: cell-based
HEK293T and U2OS cells = assay: Multiplex high-content live-cell toxicity assay; conditions: seven concentrations between 100 nM and 100 µM; 2, 12 and 24 h
Procedure: Before proof-of-concept in vivo evaluation, we profiled stability and cytotoxicity of the triple modulator 41 in vitro. […] To determine cytotoxicity, we employed a multiplex high-content life-cell imaging screen[24] on HEK293T and U2OS cells. For this, the cells were treated with fluorescent probes to detect Annexin V as apoptosis marker (Annexin V Alexa488), dead cells (Yo-Pro3), and DNA/nucleus (Hoechst33342). Cells were then incubated with 41, OCA, or elafibranor at seven concentrations between 100 nM and 100 µM, and cell health was determined by fluorescence imaging after 2, 12, and 24 h (Fig. 6g–i and Supplementary Fig. 5).
Supplementary Methods for in Vitro Characterization
Cytotoxicity was assessed in a high content screen on two different cell lines, HEK293T (ATCC® CRL-1573™) and U2OS (ATCC®HTB-96™), essentially as described previously6. In brief, cells were cultured in DMEM plus L-Glutamine (high glucose) supplemented with 10 % FBS (Gibco) and Penicillin/Streptomycin (Gibco). […]
After 2 h, 12 h and 24 h, cellular shape and fluorescence was analyzed on an automated, high-content confocal microscope (CQ1, Yokogawa). […]
50 ms, 40%; bright field, 300ms, 100% transmission, one centered field per well, 7 z stacks per well with 55 µm spacing. Images were analyzed with the Pathfinder software (Yokogawa). Cells were detected and gated as previously described6. […]
The solubilized test compound (5 μL, final concentration 10 μM in phosphate buffer (0.1 M, pH 7.4)) was preincubated at 37 °C in 432 μL of phosphate buffer (0.1 M, pH 7.4) together with a 50 μL NADPH regenerating system (30 mM glucose-6-phosphate, 4 U/mL glucose-6-phosphate dehydrogenase, 10 mM NADP, 30 mM MgCl2). […] The supernatants were analyzed and test compound was quantified by HPLC: mobile phase: MeOH 83%/H2O 17%/formic acid 0.1%; flow-rate: 1 mL/min; stationary phase: MultoHigh Phenyl phase, 5 μm, 250×4, precolumn, phenyl, 5 μm, 20×4; detection wavelength: 330 and 254 nm; injection volume: 50 μL. […]

[1] = biological target: T1, human FXR:retinoid X receptor (RXR) heterodimer (Homo sapiens, UniProt Q96RI1); assay: Full-length FXR reporter gene assay (BSEP response element) in HeLa cells; parameters: Emax: dose or concentration left out as unconfirmed
T1 construct: pcDNA3-hFXR[32] and pSG5-hRXR[33] served for receptor overexpression in the full-length FXR assay; expressed in transfected cells; host or cells: HeLa

[2] = biological target: T2, human PPARδ ligand-binding domain (Gal4 chimera) (Homo sapiens, UniProt Q03181); assay: Gal4 hybrid reporter gene assay, PPARδ; parameters: Emax: dose or concentration left out as unconfirmed
T2 construct: coding for the hinge region and LBD of the canonical isoform of the respective nuclear receptor; expressed in transfected cells; host or cells: HEK293T
T2 sequence (Q03181 211-439 limits assumed): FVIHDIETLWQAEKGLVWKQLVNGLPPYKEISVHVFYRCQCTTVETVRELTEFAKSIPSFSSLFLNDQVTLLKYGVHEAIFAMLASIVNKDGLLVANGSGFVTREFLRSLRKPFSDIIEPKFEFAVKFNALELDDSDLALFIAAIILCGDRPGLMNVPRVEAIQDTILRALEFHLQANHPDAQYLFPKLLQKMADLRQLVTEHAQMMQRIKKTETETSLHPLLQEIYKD

T1 sequence (P19793 whole entry): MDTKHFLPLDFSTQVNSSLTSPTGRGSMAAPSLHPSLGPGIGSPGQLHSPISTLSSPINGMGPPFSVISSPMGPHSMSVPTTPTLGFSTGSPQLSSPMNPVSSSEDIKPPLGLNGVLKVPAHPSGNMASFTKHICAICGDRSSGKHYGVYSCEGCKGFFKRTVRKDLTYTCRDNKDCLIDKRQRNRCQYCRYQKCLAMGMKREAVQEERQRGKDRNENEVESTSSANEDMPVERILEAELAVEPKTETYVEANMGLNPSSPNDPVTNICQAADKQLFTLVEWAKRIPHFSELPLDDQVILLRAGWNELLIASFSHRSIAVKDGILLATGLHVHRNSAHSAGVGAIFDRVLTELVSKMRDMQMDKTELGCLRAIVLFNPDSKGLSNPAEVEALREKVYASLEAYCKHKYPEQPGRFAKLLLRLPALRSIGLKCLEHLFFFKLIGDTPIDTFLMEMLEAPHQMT
T1 sequence (Q96RI1 whole entry): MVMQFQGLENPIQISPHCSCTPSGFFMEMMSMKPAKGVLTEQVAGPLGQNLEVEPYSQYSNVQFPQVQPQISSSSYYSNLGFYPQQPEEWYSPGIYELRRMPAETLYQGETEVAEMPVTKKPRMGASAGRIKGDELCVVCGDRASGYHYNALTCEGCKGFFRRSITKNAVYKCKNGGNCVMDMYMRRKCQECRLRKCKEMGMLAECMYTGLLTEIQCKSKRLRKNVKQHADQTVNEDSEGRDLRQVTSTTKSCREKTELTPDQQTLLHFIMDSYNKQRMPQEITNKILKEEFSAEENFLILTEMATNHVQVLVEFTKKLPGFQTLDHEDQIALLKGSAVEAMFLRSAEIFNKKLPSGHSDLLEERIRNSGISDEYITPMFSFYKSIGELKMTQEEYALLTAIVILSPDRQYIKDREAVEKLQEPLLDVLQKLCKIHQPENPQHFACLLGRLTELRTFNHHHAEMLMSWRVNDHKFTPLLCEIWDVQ

Row | Structure (SMILES) | cytotoxicity (cell health, apoptosis, necrosis, lysis) (HEK293T and U2OS cells) | Emax ([1]; HeLa, read-out: max. rel. act. FXR) [%] | EC50 ([1]; HeLa, mean ± SEM, n = 3, read-out: EC50 [μM] FXR) [µM] | FXR activation efficacy compared to OCA ([1]; reporter gene assay and mRNA expression levels) | EC50 ([2]; EC50 [μM] PPARδ, HEK293T, mean ± SEM, n = 3) [µM] | EC50 ([2]; PPARδ EC50, as stated in text) [µM] | Emax ([2]; read-out: max. rel. act. PPARδ) [%]
1 | CC[C@H]1[C@@H](O)[C@@H]2[C@H](CC[C@]3(C)[C@@H]([C@H](C)CCC(=O)O)CC[C@@H]23)[C@@]2(C)CC[C@@H](O)C[C@@H]12 [OCA, 6α-ethylchenodeoxycholic acid, reference compound] | non-toxic up to 100 µM concentration over 24 h | – | – | – | – | – | –
2 | CC(C)(C)c1ccc(C(=O)Nc2cccc(CCC(=O)O)c2)c(NC(=O)c2ccc(-c3ccco3)cc2)c1 [compound 41, 3-(3-[4-{tert-Butyl}-2-{4-(2-furyl)}benzamido]phenyl)propanoic acid] | no notable toxic effects up to high 100 µM concentration | 19 | 0.015 ± 0.002 | approximately 1/5 | 0.14 ± 0.01 | 0.141 | 34
